Structures can show the parent of a compound that is named as a salt. Calls of active or inactive are those of the source. Cut-off read from the data, not from the text of the source, for most assays here: actives have a measured Kd and inactives only a lower limit.
Tests used:
[1] = target: Ras-related protein Rab-6A (Homo sapiens, UniProt P20340)
[2] = target: T1, Mitogen-activated protein kinase kinase kinase 3 (Homo sapiens, UniProt Q99759)
T1 sequence (Q99759 whole entry): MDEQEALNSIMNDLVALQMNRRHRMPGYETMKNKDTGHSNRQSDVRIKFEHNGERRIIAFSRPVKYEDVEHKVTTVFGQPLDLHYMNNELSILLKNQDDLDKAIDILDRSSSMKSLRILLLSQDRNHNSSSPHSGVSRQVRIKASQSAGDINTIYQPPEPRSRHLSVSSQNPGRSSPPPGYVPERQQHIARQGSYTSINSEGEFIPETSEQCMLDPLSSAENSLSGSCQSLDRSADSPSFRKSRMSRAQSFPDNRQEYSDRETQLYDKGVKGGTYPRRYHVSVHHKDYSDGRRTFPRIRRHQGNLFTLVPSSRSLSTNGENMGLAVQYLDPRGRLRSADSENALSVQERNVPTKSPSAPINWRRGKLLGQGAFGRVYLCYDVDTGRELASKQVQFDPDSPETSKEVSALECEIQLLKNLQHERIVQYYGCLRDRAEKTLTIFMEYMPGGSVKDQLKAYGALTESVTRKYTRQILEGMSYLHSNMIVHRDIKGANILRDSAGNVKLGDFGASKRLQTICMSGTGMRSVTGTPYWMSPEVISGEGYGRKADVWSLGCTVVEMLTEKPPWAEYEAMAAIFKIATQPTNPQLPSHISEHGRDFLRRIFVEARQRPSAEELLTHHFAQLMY

[3] = target: T2, Dual specificity mitogen-activated protein kinase kinase 5 (Homo sapiens, UniProt Q13163)
T2 sequence (Q13163 whole entry): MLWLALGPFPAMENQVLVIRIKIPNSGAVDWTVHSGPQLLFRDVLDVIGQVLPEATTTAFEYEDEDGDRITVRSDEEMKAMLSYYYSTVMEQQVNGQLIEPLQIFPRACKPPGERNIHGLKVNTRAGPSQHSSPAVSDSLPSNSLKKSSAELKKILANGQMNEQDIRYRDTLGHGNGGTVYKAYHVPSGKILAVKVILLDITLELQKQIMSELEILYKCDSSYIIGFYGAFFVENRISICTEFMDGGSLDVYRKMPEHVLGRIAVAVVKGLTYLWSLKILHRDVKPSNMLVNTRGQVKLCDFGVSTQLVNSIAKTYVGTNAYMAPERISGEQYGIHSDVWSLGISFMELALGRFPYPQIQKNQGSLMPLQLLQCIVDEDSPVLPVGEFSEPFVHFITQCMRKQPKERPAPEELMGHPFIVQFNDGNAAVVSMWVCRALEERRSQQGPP

[4] = target: T3, Serine/threonine-protein kinase ULK3 (Homo sapiens, UniProt Q6PHR2)
T3 sequence (Q6PHR2 whole entry): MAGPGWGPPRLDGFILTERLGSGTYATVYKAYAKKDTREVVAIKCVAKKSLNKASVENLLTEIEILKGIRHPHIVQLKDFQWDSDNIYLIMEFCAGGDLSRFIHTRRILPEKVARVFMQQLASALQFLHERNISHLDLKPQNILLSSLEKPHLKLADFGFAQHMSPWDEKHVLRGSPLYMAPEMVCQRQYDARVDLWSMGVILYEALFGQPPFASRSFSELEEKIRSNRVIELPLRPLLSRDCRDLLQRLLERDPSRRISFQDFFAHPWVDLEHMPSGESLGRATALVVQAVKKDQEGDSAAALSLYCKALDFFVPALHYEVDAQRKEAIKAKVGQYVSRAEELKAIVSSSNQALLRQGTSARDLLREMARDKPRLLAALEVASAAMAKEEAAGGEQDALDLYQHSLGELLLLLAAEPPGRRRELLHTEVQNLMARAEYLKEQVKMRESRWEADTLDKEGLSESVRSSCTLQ

[5] = target: Ribosomal protein S6 kinase alpha-6 (Homo sapiens, UniProt Q9UK32)
[6] = target: T4, Eukaryotic translation initiation factor 5B (Homo sapiens, UniProt O60841)
T4 sequence (O60841 whole entry): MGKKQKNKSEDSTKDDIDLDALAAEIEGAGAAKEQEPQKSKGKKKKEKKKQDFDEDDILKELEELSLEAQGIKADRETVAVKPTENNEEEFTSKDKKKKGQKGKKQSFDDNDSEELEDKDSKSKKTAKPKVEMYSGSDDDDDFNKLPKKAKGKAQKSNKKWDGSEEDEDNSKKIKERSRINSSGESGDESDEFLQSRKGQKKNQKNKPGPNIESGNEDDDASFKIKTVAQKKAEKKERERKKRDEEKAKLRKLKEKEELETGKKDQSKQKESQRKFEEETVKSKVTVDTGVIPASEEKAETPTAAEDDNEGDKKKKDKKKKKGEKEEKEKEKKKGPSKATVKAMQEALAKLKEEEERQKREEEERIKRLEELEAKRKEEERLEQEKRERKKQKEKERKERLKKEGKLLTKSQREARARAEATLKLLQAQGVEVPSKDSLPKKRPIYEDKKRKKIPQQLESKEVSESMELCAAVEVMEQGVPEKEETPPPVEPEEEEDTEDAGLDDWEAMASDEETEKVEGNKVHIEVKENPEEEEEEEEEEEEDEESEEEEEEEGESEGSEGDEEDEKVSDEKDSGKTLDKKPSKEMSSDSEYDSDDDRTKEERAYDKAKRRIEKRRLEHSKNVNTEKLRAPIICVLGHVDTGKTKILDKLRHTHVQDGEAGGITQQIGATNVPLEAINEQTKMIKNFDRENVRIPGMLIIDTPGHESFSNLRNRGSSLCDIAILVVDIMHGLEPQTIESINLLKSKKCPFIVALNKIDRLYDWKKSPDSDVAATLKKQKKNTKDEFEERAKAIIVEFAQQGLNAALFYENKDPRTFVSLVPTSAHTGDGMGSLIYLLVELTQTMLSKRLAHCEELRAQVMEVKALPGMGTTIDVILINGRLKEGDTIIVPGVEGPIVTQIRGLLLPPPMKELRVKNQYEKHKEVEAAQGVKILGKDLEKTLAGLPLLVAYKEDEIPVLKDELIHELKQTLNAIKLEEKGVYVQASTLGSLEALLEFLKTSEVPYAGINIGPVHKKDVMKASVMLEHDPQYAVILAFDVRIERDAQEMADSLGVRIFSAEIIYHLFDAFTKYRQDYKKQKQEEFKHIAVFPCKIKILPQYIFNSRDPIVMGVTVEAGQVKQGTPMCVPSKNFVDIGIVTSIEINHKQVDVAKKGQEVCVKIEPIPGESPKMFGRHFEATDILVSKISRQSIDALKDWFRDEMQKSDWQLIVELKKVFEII

Wee1-like protein kinase = Wee1-like protein kinase (Homo sapiens, UniProt P30291)
Note: in the data inactive means no Kd found up to 30 µM.

Ribosomal protein S6 kinase alpha-6, sequence (Q9UK32 whole entry): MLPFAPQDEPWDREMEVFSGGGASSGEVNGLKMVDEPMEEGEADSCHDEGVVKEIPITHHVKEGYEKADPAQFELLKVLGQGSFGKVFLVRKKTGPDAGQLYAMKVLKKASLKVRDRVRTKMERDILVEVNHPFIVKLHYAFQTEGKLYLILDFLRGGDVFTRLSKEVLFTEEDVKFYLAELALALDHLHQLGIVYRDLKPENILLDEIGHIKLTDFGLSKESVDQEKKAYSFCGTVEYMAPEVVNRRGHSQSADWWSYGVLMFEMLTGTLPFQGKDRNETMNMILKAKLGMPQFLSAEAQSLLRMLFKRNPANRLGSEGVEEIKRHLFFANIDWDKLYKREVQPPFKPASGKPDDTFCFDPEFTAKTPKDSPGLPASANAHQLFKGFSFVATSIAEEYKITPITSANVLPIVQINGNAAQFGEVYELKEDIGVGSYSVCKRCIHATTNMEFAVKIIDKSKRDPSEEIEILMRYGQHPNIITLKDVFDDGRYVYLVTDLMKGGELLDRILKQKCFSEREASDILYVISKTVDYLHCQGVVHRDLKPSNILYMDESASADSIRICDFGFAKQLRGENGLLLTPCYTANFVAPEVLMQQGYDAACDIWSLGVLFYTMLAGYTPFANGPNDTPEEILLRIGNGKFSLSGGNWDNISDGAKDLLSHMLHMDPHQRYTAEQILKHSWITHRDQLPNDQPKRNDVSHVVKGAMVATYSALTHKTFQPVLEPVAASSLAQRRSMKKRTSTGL
Ras-related protein Rab-6A, sequence (P20340 whole entry): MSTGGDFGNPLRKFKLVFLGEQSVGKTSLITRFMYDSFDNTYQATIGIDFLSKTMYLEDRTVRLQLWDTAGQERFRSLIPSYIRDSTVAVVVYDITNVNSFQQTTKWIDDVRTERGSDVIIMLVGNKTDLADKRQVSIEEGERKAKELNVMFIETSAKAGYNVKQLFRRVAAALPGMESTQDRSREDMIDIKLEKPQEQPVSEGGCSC
Wee1-like protein kinase, sequence (P30291 whole entry): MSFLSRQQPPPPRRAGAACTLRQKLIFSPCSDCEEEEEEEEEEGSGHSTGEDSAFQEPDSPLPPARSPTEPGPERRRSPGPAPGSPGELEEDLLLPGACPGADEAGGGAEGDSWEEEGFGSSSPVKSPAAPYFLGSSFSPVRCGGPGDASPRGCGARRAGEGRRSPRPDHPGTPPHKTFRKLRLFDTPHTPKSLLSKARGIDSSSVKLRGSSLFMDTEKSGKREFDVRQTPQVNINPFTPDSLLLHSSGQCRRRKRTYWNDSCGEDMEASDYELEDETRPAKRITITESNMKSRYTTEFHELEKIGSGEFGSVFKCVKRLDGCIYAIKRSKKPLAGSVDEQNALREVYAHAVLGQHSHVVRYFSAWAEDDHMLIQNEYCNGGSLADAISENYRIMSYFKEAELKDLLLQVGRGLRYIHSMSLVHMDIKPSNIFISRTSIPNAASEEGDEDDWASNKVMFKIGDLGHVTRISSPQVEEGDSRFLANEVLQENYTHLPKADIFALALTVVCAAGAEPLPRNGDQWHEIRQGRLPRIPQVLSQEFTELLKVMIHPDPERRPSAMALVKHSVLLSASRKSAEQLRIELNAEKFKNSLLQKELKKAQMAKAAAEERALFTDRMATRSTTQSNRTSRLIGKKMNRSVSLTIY

Compound	Kd [1]	Kd [2]	Kd [3]	Kd [4]	Kd [5]	Kd [6]	Kd (Wee1-like protein kinase)
COCC(=O)NC/C=C/c1ccc2ncnc(Nc3ccc(Oc4ccc(C)nc4)c(C)c3)c2c1 [CP-724714]	> 30 µM (inactive)	> 30 µM (inactive)	1.26 µM (active)	> 30 µM (inactive)	> 30 µM (inactive)	> 30 µM (inactive)	> 30 µM (inactive)
CCS(=O)(=O)N1CCN(c2ccc(Nc3ncc(C(N)=O)c(NC4CC4)n3)cc2)CC1 [Cerdulatinib Hydrochloride]	> 30 µM (inactive)	1.09 µM (active)	0.656 µM (active)	0.655 µM (active)	0.455 µM (active)	> 30 µM (inactive)	> 30 µM (inactive)
Cc1nc2cc(-n3ncc(C(=O)c4cc5ccccc5[nH]4)c3N)ccc2[nH]1 [FGFR INHIBITOR DEBIO 1347]	> 30 µM (inactive)	> 30 µM (inactive)	> 30 µM (inactive)	> 30 µM (inactive)	> 30 µM (inactive)	> 30 µM (inactive)	> 30 µM (inactive)
O=C(Nc1nc2cccc(-c3ccc(CN4CCS(=O)(=O)CC4)cc3)n2n1)C1CC1 [FILGOTINIB]	> 30 µM (inactive)	> 30 µM (inactive)	> 30 µM (inactive)	> 30 µM (inactive)	> 30 µM (inactive)	> 30 µM (inactive)	> 30 µM (inactive)
COc1ccc(S(=O)(=O)N(C(C)=O)c2ccccc2/C=C/c2cc[n+]([O-])cc2)cc1 [HMN-214]	> 30 µM (inactive)	> 30 µM (inactive)	> 30 µM (inactive)	> 30 µM (inactive)	> 30 µM (inactive)	> 30 µM (inactive)	> 30 µM (inactive)
O=C(Nc1cc(C(F)(F)F)cc(C(F)(F)F)c1)c1cc(Cl)ccc1O [IMD-0354]	> 30 µM (inactive)	> 30 µM (inactive)	> 30 µM (inactive)	> 30 µM (inactive)	> 30 µM (inactive)	> 30 µM (inactive)	> 30 µM (inactive)
CNC(=O)c1cccc2cc(Oc3ccnc4cc(OCC5(N)CC5)c(OC)cc34)ccc12 [LUCITANIB]	> 30 µM (inactive)	> 30 µM (inactive)	> 30 µM (inactive)	> 30 µM (inactive)	> 30 µM (inactive)	> 30 µM (inactive)	> 30 µM (inactive)
Cn1cc(-c2cnc3ccc4ccc(CS(=O)(=O)NCc5ccccn5)cc4c(=O)c3c2)cn1 [MK-8033]	> 30 µM (inactive)	> 30 µM (inactive)	> 30 µM (inactive)	> 30 µM (inactive)	> 30 µM (inactive)	> 30 µM (inactive)	> 30 µM (inactive)
COc1ncc(-c2ccc3nccc(-c4ccnnc4)c3c2)cc1NS(=O)(=O)c1ccc(F)cc1F [OMIPALISIB]	> 30 µM (inactive)	> 30 µM (inactive)	> 30 µM (inactive)	> 30 µM (inactive)	> 30 µM (inactive)	> 30 µM (inactive)	> 30 µM (inactive)
CCCCCCCCCCCCCCCCCCOP(=O)([O-])OC1CC[N+](C)(C)CC1 [PERIFOSINE]	> 30 µM (inactive)	> 30 µM (inactive)	> 30 µM (inactive)	> 30 µM (inactive)	> 30 µM (inactive)	> 30 µM (inactive)	> 30 µM (inactive)
Cc1nc(Nc2n[nH]c3c2CN(C(=O)N[C@H](CN(C)C)c2ccccc2)C3(C)C)c2sccc2n1 [PF-03758309]	> 30 µM (inactive)	> 30 µM (inactive)	> 30 µM (inactive)	0.626 µM (active)	0.004 µM (active)	> 30 µM (inactive)	2.77 µM (active)
Cc1cnc(NC(=O)Nc2cc(Br)c(C)cc2OC[C@@H]2CNCCO2)cn1 [RABUSERTIB]	> 30 µM (inactive)	> 30 µM (inactive)	> 30 µM (inactive)	> 30 µM (inactive)	> 30 µM (inactive)	> 30 µM (inactive)	> 30 µM (inactive)
CNC(=O)c1cc(Oc2ccc(NC(=O)Nc3cc(C(C)(C)C)nn3-c3ccc4ncccc4c3)c(F)c2)ccn1 [REBASTINIB]	> 30 µM (inactive)	> 30 µM (inactive)	> 30 µM (inactive)	> 30 µM (inactive)	> 30 µM (inactive)	> 30 µM (inactive)	> 30 µM (inactive)
N#CC1(c2ccc(NC(=O)c3cccnc3NCc3ccncc3)cc2)CCCC1 [RIVOCERANIB]	> 30 µM (inactive)	> 30 µM (inactive)	> 30 µM (inactive)	> 30 µM (inactive)	> 30 µM (inactive)	> 30 µM (inactive)	> 30 µM (inactive)
O=c1[nH]ccc2cc(OC3CCNCC3)ccc12 [SAR-407899 FREE BASE]	> 30 µM (inactive)	> 30 µM (inactive)	> 30 µM (inactive)	> 30 µM (inactive)	> 30 µM (inactive)	> 30 µM (inactive)	> 30 µM (inactive)
Cn1cc(-c2cnn3c(N)c(Br)c([C@@H]4CCCNC4)nc23)cn1 [SCH-900776]	> 30 µM (inactive)	> 30 µM (inactive)	0.609 µM (active)	> 30 µM (inactive)	1.27 µM (active)	> 30 µM (inactive)	> 30 µM (inactive)
CO[C@H]1C[C@@H]2CC[C@@H](C)[C@@](O)(O2)C(=O)C(=O)N2CCCC[C@H]2C(=O)O[C@H]([C@H](C)C[C@@H]2CC[C@@H](O)[C@H](OC)C2)CC(=O)[C@H](C)/C=C(\C)[C@@H](O)[C@@H](OC)C(=O)[C@H](C)C[C@H](C)/C=C/C=C/C=C/1C [SIROLIMUS]	> 30 µM (inactive)	> 30 µM (inactive)	> 30 µM (inactive)	> 30 µM (inactive)	> 30 µM (inactive)	> 30 µM (inactive)	> 30 µM (inactive)
